Measured values as given in the NIST ThermoML archive (doi:10.1016/j.jct.2007.03.009).
Where “and” joins values, the source holds several entries; their conditions need not be identical. Equal values may be shown once. ± gives the expanded uncertainty stated by the source.

Conditions: for mass density: 298 K, 101.33 kPa, Liquid, masses and of the volumes of pellets.; for Normal melting temperature / vapor or sublimation pressure: Crystal; for Normal melting temperature: DTA; for vapor or sublimation pressure: Knudsen effusion

O=C1c2ccccc2C(=O)N1CCBr [N-(2-bromoethyl)phthalimide]
mass density: 1323 ± 26 kg/m3
Normal melting temperature: 81.5 ± 0.5 °C

O=C1c2ccccc2C(=O)N1CCCl [N-(2-chloroethyl)phthalimide]
mass density: 1218 ± 24 kg/m3
Normal melting temperature: 82.8 ± 0.5 °C

O=C1c2ccccc2C(=O)N1CCCBr [N-(3-bromopropyl)phthalimide]
mass density: 1051 ± 21 kg/m3
Normal melting temperature: 72.8 ± 0.5 °C

O=C1c2ccccc2C(=O)N1CCl [N-(chloromethyl)phthalimide]
mass density: 1081 ± 22 kg/m3
vapor or sublimation pressure (323.27 K): 0.000111 ± 2e-05 kPa and 0.000106 ± 2e-05 kPa
vapor or sublimation pressure (325.24 K): 0.000138 ± 2.1e-05 kPa and 0.000137 ± 2.1e-05 kPa and 0.000132 ± 2.1e-05 kPa
vapor or sublimation pressure (327.12 K): 0.000171 ± 2.1e-05 kPa and 0.000168 ± 2.1e-05 kPa and 0.000169 ± 2.1e-05 kPa
vapor or sublimation pressure (329.26 K): 0.000218 ± 2.1e-05 kPa and 0.000207 ± 2.1e-05 kPa and 0.00022 ± 2.1e-05 kPa
vapor or sublimation pressure (331.23 K): 0.000282 ± 2.2e-05 kPa and 0.00027 ± 2.2e-05 kPa and 0.000262 ± 2.2e-05 kPa
vapor or sublimation pressure (333.11 K): 0.00033 ± 2.3e-05 kPa and 0.000328 ± 2.3e-05 kPa and 0.000329 ± 2.3e-05 kPa
vapor or sublimation pressure (335.12 K): 0.00042 ± 2.5e-05 kPa and 0.000413 ± 2.5e-05 kPa and 0.000402 ± 2.5e-05 kPa
vapor or sublimation pressure (337.26 K): 0.000534 ± 2.8e-05 kPa and 0.000519 ± 2.7e-05 kPa and 0.000507 ± 2.7e-05 kPa
vapor or sublimation pressure (339.12 K): 0.000648 ± 3e-05 kPa and 0.000644 ± 3e-05 kPa and 0.000618 ± 3e-05 kPa
vapor or sublimation pressure (341.22 K): 0.000835 ± 3.6e-05 kPa and 0.000801 ± 3.5e-05 kPa and 0.00077 ± 3.4e-05 kPa
vapor or sublimation pressure (343.25 K): 0.001007 ± 4.1e-05 kPa and 0.000989 ± 4e-05 kPa and 0.000946 ± 3.9e-05 kPa
Normal melting temperature: 133.5 ± 0.5 °C
